Values of other authors as cited in patent US20150276574A1, “CELL ANALYSIS METHOD” (SYSMEX CORPORATION, priority 2014, published 2015).

Details: not given

Solubility in 100 g of water at 20° C. [g]	Molecule
≥ 2	CC(C)=CC(=O)O [3-methylcrotonic acid]

Same assay, conditions: 100 g of water, 20° C.

Solubility in 100 g of water at 20° C. [g]	Molecule
≥ 5	CCC(O)C(=O)O (centres unmarked) [2-hydroxybutyric acid]
20	NC(=O)NCCC[C@H](N)C(=O)O [citrulline]
44	O=C(O)/C=C\C(=O)O [maleic acid]
5	O=C(O)CC(O)C(=O)O (centres unmarked) [malic acid]
≥ 5	aminobutanoic acid

Molecule	Solubility in 100 g of water at 20° C. [g]
CC1=CC(=O)OC1=O [citraconic anhydride]	≥ 10
O=C(O)CCCC(=O)O [glutaric acid]	43
